Data taken from patent US20230094832A1, “ANTIBODY-DRUG CONJUGATE COMPRISING IMMUNE CHECKPOINT INHIBITOR AND EXOSOME SECRETION INHIBITOR, AND PHARMACEUTICAL COMPOSITION COMPRISING SAME” (Research & Business Foundation Sungkyunkwan University, priority 2020, published 2023).

Experiments:
[1] = tested on: melanoma cell line B16F10; assay: Cytotoxicity evaluation by MTT assay; type: cell-based; conditions: B16F10 cells, 24 hours treatment at each concentration, FIG. 4
Protocol: In order to evaluate the cytotoxicity of Ab-VC-AMB prepared in Example 1, a melanoma cell line B16F10 (1×10^4) was attached to a 96-well plate, and after 24 hours, and the cell line was treated with Ab, AMB, AMB+Ab, and Ab-VC-AMB at each concentration, respectively. After 24 hours, the number of living cells was calculated by MTT assay. For this, 5 mg/ml MTT reagent was diluted 1/10 in the medium, and then 200 μl was added to each well of the 96-well plate. After the cells were cultured in an incubator for 1.5 hours, the MTT reagent was removed, and 200 μl of DMSO was added to each well of the 96-well plate. After the cells were cultured at room temperature for 30 minutes, cell viability was calculated by confirming the absorbance at 570 nm.

exosomes in plasma = assay: Exosomal total protein amount in plasma exosomes (BCA analysis); type: in vivo, mice; conditions: plasma exosomes after efficacy study, compared to the Ab control, FIG. 9
Protocol: (§1) To evaluate the ability of Ab-VC-AMB prepared in Example 1 to inhibit the secretion of exosomes, after the animal model for which the therapeutic efficacy evaluation was completed was sacrificed, plasma was isolated, and exosomes were isolated and extracted using an exosome isolation kit (Invitrogen total exosome isolation reagent). The amount of protein was measured by performing BCA analysis (bicinchoninic acid assay) on the isolated exosomes. Albumin standards diluted to various concentrations and 150 μl of an unknown sample whose protein amount was not known were put into a 96-well plate, respectively. 150 μl of a working reagent containing bicinchoninic acid from a BCA protein […] kit (Pierce) was placed in each well containing each sample, and the resulting mixture was shaken and mixed well, and then incubated at 37° C. for 2 hours. Thereafter, the protein concentration of exosomes was calculated by measuring the absorbance at 562 nm using a microplate reader.

B16F10 melanoma tumors = assay: Therapeutic efficacy (tumor volume) in B16F10 cancer animal model; type: in vivo; conditions: B16F10 mice, FIGS. 5 and 6
Protocol: (§2) In order to evaluate the therapeutic efficacy of Ab-VC-AMB prepared in Example 1 in a disease animal model, a cancer animal model was produced by subcutaneously inoculating B16F10 (1×10^6 cells), which is a melanoma cell line, into mice and allowing tumors to grow for 10 days (Day 0). Thereafter, on days 1, 4, 7 and 10, Ab-VC-AMB, saline, an antibody (Ab) or AMB was injected intravenously into the cancer animal model (Ab 5 mg/kg, AMB 10 mg/kg, Ab-VC-AMB 5 mg/kg), and then the therapeutic efficacy was evaluated for 11 days.

[2] = design: species or system mice; conditions: mouse, in vivo, iv
Protocol: as §2

[3] = tested on: PD-L1 on the surface of exosomes; assay: Exosomal PD-L1 quantified by ELISA; type: in vivo, mice; conditions: plasma exosomes after efficacy study, compared to the other groups, FIG. 10
Protocol: as §1
In addition, PD-L1 on the surface of exosomes, which is a factor known to suppress the activity of T cells, was quantified through ELISA analysis. A 96-well plate was coated with 2 μg/ml PD-L1 antibody incubated at 4° C. for 16 hours […]. […] Absorbance at 450 nm was measured using a microplate reader.

[4] = tested on: major organs (liver, lungs, spleen, kidneys, and heart) and cancer tissue; assay: Histopathological evaluation by H&E staining; type: in vivo, mice; conditions: cancer tissue compared to the control, FIG. 8
Protocol: A histopathological evaluation was performed by removing major organs and cancer tissue and staining the tissue by a hematoxylin and eosin (H&E) staining method. For this purpose, the major organs (liver, lungs, spleen, kidneys, and heart) and cancer tissue were removed, placed in a cassette, and fixed in a fixative solution. Then, after a paraffin block was prepared, a sample was prepared with a thickness of 6 μm. After the sample was stained with a Harris hematoxylin staining solution and an eosin-phloxine staining solution, the sample was observed through a slide scanner.

| SMILES | cytotoxicity (cell viability) [1] | amount of exosomal protein (exosomes in plasma) | volume of cancer compared to the Ab control (B16F10 melanoma tumors; i.v. on days 1, 4, 7 and 10, Ab-VC-AMB 5 mg/kg vs Ab 5 mg/kg, 11 days) | cancer volume compared to the control to which saline was administered (B16F10 melanoma tumors; i.v. on days 1, 4, 7 and 10, Ab-VC-AMB 5 mg/kg, evaluated for 11 days) [%] | changes in body weight (toxicity) [2] | exosomal PD-L1 level [3] | cell death area in the cancer tissue (H&E) [4] |
| --- | --- | --- | --- | --- | --- | --- | --- |
| COC(c1ccccc1)(c1ccccc1)[C@H](Oc1nc(C)cc(C)n1)C(=O)O [AMB, ambrisentan, reference compound] | does not have a direct relationship with toxicity affecting cells |  |  |  |  |  |  |
| COC(c1ccccc1)(c1ccccc1)C(Oc1nc(C)cc(C)n1)C(=O)OCc1ccc(NC(=O)C(CCCNC(N)=O)CC(=O)C(NC(=O)CCCCCN2C(=O)CC(SC)C2=O)C(C)C)cc1 (centres unmarked) [Ab-VC-AMB] | high biocompatibility | statistically significant low amount of exosomal protein compared to the Ab control | about 45% | 24 | does not show toxicity | tendency to decrease remarkably | a large cell death area in the cancer tissue was observed compared to the control |
